The nature of assay [1]: Anticancer activity against Homo sapiens (human) NCI lung cancer cell assessed as inhibition of cell proliferation after 24 hr by MTT assay. It counts as functional, cell-based. The settings on record: Cancer cell lines.
The subject of a further assay is HEK293. In words: Cytotoxicity against Homo sapiens (human) HEK293 cells assessed as inhibition of cell proliferation after 24 hr by MTT assay. It counts as cell-based. The conditions noted are these: HEK293, 24 h.
The next assay has as its system MCF7. Kind of assay: Anticancer activity against Homo sapiens (human) MCF7 cells assessed as inhibition of cell proliferation after 24 hr by MTT assay. It counts as functional, cell-based. The settings on record: MCF7, 24 h. Background: Formazan colour is commonly taken as a measure of viable cells.

Consider 17 compounds from ChEMBL document CHEMBL3045216, “Synthesis and screening of 2-(2-(4-substituted piperazine-1-yl)-5-phenylthiazol-4-yl)-3-aryl quinazolinone derivatives as anticancer agents” (Med Chem Res, 2013).

Broadly, the IC50 is the midpoint of a concentration-inhibition curve. In the case of `CN1CCN(c2nc(-c3ccccc3)c(-c3nc4ccccc4c(=O)n3-c3ccccc3)s2)CC1`, the IC50 in assay [1] came out at 9890 nM; in the assay on HEK293 it was 860 nM; in the assay with MCF7, 5840 nM.

For the compound `O=C(c1ccccc1)N1CCN(c2nc(-c3ccccc3)c(-c3nc4ccccc4c(=O)n3-c3ccccc3)s2)CC1`, the values for the IC50 (in assay [1]; in the assay with HEK293; with MCF7) were 13400 nM, 420 nM and 19900 nM, respectively.

As to `O=c1c2ccccc2nc(-c2sc(N3CCNCC3)nc2-c2ccccc2)n1-c1ccccc1`, the results for the IC50 (in assay [1]; with HEK293; in the assay with MCF7) were 2660 nM, 740 nM and 46700 nM, respectively.

As to `CN1CCN(c2nc(-c3ccccc3)c(-c3nc4ccccc4c(=O)n3Nc3ccccc3)s2)CC1`, the IC50 was 1110 nM in assay [1], 3030 nM in the assay with HEK293 and 160 nM in the assay on MCF7.

With `O=C(c1ccccc1)N1CCN(c2nc(-c3ccccc3)c(-c3nc4ccccc4c(=O)n3Nc3ccccc3)s2)CC1`, the IC50 turned out to be 5590 nM in assay [1], 800 nM in the assay on HEK293 and 2490 nM with MCF7.

For the compound `COc1ccc(Nn2c(-c3sc(N4CCNCC4)nc3-c3ccccc3)nc3ccccc3c2=O)cc1`, the IC50 is 2920 nM in assay [1], 1110 nM with HEK293 and 11400 nM in the assay with MCF7.

In the case of `O=C(c1ccccc1)N1CCN(c2nc(-c3ccccc3)c(-c3nc4ccccc4c(=O)n3-c3ccc(Cl)cc3)s2)CC1`, the IC50 is 15600 nM in assay [1], 690 nM with HEK293 and above 100000 nM with MCF7.

For the compound `CN1CCN(c2nc(-c3ccccc3)c(-c3nc4ccccc4c(=O)n3-c3ccc(Cl)cc3)s2)CC1`, the figures for the IC50 (in assay [1]; in the assay with HEK293; in the assay with MCF7) were above 100000 nM, 940 nM and 1970 nM, respectively.

Turning to `O=c1c2ccccc2nc(-c2sc(N3CCNCC3)nc2-c2ccccc2)n1-c1ccc(Cl)cc1`, the IC50 was 6100 nM in assay [1], 14400 nM with HEK293 and above 100000 nM in the assay on MCF7.

Take `COc1ccccc1-n1c(-c2sc(N3CCN(C)CC3)nc2-c2ccccc2)nc2ccccc2c1=O`: the IC50 in assay [1] came out at 9430 nM; in the assay with HEK293, 670 nM; with MCF7, 1500 nM.

Take `COc1ccccc1-n1c(-c2sc(N3CCNCC3)nc2-c2ccccc2)nc2ccccc2c1=O`: the figures for the IC50 (in assay [1]; in the assay with HEK293; with MCF7) were 4330 nM, 550 nM and 3700 nM, respectively.

With `COc1ccccc1-n1c(-c2sc(N3CCN(C(=O)c4ccccc4)CC3)nc2-c2ccccc2)nc2ccccc2c1=O`, the IC50 in assay [1] came out at 5930 nM; with HEK293, 2290 nM; in the assay with MCF7 it was 660 nM.

Consider `CN1CCN(c2nc(-c3ccccc3)c(-c3nc4ccccc4c(=O)n3-c3ccccc3[N+](=O)[O-])s2)CC1`, for which the values for the IC50 (in assay [1]; with HEK293; in the assay with MCF7) were 6720 nM, 810 nM and 8900 nM, respectively.

Turning to `O=c1c2ccccc2nc(-c2sc(N3CCNCC3)nc2-c2ccccc2)n1-c1ccccc1[N+](=O)[O-]`, the IC50 was found to be 8390 nM in assay [1], 1070 nM in the assay on HEK293 and 5860 nM in the assay with MCF7.

For the compound `O=C(c1ccccc1)N1CCN(c2nc(-c3ccccc3)c(-c3nc4ccccc4c(=O)n3-c3ccccc3[N+](=O)[O-])s2)CC1`, the IC50 in assay [1] worked out at 11000 nM; in the assay on HEK293, 730 nM; with MCF7, 6490 nM.

For `O=c1[nH]cc(F)c(=O)[nH]1` [FLUOROURACIL], the IC50 was found to be 2300 nM in assay [1], 2150 nM in the assay with HEK293 and 1250 nM in the assay with MCF7.

For `CN(Cc1cnc2nc(N)nc(N)c2n1)c1ccc(C(=O)N[C@@H](CCC(=O)O)C(=O)O)cc1` [METHOTREXATE], the IC50 came to 2200 nM in assay [1], 1270 nM with HEK293 and 2260 nM in the assay on MCF7.
